Values belong to the molecule of their own block, whether it stands above or below them.
How the values were obtained:
Capan-1 (K-Ras G12V) = test: CellTiter-Glo cell viability assay, 5-day treatment; format: cell-based; conditions: Homo sapiens, CAPAN-1, 120 h, 5-day treatment; read-out: Capan-1 Cell Viability assay data (K-Ras G12V, IC50)
Method in brief: (§1)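 Seeded cells received test compound by direct dispensing. On day 5 the plates sat at room temperature approximately 30 minutes, then luminescence was measured. Data were normalized to DMSO and curve-fitted with four parameters.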

NCI-H358 (K-Ras G12C) = test: as above; format: cell-based; conditions: Homo sapiens, NCI-H358, 120 h, 5-day treatment; read-out: H358 Cell Viability assay data (K-Ras G12C, IC50)
Method in brief: as §1

KRAS G13D = KRAS G13D (Homo sapiens, UniProt P01116+P62937, G13D); test: Disruption of BRAF RBD interaction with Ras (FRET / MOA assay, with Cyclophilin A); format: biochemical; conditions: KRAS G13D; read-out: KRAS G13D FRET data IC50
Sequence of KRAS G13D (P01116 1-169 isoform P01116-2 G13D limits assumed): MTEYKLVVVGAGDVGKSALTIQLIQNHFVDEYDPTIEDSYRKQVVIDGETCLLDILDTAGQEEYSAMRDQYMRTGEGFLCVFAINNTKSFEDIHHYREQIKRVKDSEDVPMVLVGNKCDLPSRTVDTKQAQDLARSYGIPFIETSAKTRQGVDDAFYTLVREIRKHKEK
Sequence of KRAS G13D (P62937 whole entry): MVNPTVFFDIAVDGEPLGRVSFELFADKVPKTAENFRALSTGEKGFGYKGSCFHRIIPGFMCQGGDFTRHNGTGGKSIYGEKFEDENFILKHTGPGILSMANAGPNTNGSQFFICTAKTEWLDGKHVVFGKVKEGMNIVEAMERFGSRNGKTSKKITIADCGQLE
Method in brief: (§2)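 Cyclophilin A-dependent ternary complex assay. K-Ras loaded with nucleotide; BRAF RBD as effector. Cpd top 30 μM final, 3 h at 25 °C. Readout: TR-FRET ratio, IC50.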

KRAS G12C = KRAS G12C (Homo sapiens, UniProt P01116+P62937, G12C); test: as above; format: biochemical; conditions: read-out: KRAS G12C FRET data, IC50
Sequence of KRAS G12C (P01116 1-169 isoform P01116-2 G12C): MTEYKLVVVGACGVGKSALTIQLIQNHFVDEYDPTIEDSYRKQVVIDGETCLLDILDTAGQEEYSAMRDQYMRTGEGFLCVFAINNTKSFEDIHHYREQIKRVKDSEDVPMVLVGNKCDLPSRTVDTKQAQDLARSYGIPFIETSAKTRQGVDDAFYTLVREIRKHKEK
Sequence of KRAS G12C (P62937 whole entry): as the sequence (P62937 whole entry) above
Method in brief: as §2

KRAS G12S = KRAS G12S (Homo sapiens, UniProt P01116+P62937, G12S); test: as above; format: biochemical; conditions: read-out: KRAS G12S FRET data, IC50
Sequence of KRAS G12S (P01116 1-169 isoform P01116-2 G12S limits assumed): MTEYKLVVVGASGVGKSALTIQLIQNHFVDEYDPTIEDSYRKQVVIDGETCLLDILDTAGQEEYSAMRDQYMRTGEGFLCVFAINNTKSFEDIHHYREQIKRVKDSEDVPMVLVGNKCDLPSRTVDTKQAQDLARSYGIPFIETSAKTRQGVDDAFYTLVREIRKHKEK
Sequence of KRAS G12S (P62937 whole entry): as the sequence (P62937 whole entry) above
Method in brief: as §2

KRAS G12D = KRAS G12D (Homo sapiens, UniProt P01116+P62937, G12D); test: as above; format: biochemical; conditions: read-out: KRAS G12D FRET data, IC50
Sequence of KRAS G12D (P01116 1-169 isoform P01116-2 G12D limits assumed): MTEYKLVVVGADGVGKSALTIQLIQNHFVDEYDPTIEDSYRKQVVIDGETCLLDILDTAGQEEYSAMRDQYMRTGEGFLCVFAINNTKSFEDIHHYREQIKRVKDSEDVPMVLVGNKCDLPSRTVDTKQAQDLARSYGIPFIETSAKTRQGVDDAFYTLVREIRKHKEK
Sequence of KRAS G12D (P62937 whole entry): as the sequence (P62937 whole entry) above
Method in brief: as §2

KRAS G12V = KRAS G12V (Homo sapiens, UniProt P01116+P62937, G12V); test: as above; format: biochemical; conditions: KRAS G12V; read-out: KRAS G12V FRET data IC50
Sequence of KRAS G12V (P01116 1-169 isoform P01116-2 G12V limits assumed): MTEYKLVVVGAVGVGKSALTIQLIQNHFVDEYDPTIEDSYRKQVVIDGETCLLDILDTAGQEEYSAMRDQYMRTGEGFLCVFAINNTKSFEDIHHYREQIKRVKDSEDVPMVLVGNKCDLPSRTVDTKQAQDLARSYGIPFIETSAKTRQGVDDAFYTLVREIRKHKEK
Sequence of KRAS G12V (P62937 whole entry): as the sequence (P62937 whole entry) above
Method in brief: as §2

NRAS G12C = NRAS G12C (Homo sapiens, UniProt P01111+P62937, G12C); test: as above; format: biochemical; conditions: NRAS G12C; read-out: NRAS G12C FRET data IC50
Sequence of NRAS G12C (P01111 whole entry G12C): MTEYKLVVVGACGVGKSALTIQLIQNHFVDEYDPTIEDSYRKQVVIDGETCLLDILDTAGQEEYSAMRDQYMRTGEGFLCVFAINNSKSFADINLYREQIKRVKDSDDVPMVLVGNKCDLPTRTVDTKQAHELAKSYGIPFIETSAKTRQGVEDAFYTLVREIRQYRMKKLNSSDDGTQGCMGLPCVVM
Sequence of NRAS G12C (P62937 whole entry): as the sequence (P62937 whole entry) above

KRAS G13C = KRAS G13C (Homo sapiens, UniProt P01116+P62937, G13C); test: as above; format: biochemical; conditions: read-out: KRAS G13C FRET data, IC50
Sequence of KRAS G13C (P01116 1-169 isoform P01116-2 G13C): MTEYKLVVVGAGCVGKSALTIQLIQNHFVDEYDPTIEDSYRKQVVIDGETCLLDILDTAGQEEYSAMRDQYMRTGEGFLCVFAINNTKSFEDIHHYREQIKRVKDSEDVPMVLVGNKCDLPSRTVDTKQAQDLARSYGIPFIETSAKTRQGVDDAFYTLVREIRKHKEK
Sequence of KRAS G13C (P62937 whole entry): as the sequence (P62937 whole entry) above
Method in brief: as §2

KRAS WT = KRAS WT (Homo sapiens, UniProt P01116+P62937); test: as above; format: biochemical; conditions: KRAS WT; read-out: KRAS WT FRET data IC50
Sequence of KRAS WT (P01116 1-169 isoform P01116-2 limits assumed): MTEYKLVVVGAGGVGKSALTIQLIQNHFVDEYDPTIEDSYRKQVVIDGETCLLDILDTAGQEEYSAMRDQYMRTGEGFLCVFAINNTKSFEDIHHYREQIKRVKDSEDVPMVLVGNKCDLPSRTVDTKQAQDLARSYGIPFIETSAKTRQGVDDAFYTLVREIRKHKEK
Sequence of KRAS WT (P62937 whole entry): as the sequence (P62937 whole entry) above
Method in brief: as §2

SMILES: CCn1c(-c2cccnc2[C@H](C)OC)c2c3cc(ccc31)-c1cc(O)cc(c1)C[C@H](NC(=O)[C@H](C(C)C)N(C)C(=O)[C@H]1CCN(C(=O)CNC)C1)C(=O)N1CCC[C@H](N1)C(=O)OCC(C)(C)C2 (atropisomer, axis not shown) [Example A120]
IC50 (Capan-1 (K-Ras G12V)): > 10000 nM | IC50 (NCI-H358 (K-Ras G12C)): 1000 to 10000 nM | IC50 (KRAS G13D): 100 to 1000 nM | IC50 (KRAS G12C): 10 to 100 nM | IC50 (KRAS G12S): 10 to 100 nM | IC50 (KRAS G12D): 10 to 100 nM | IC50 (KRAS G12V): 100 to 1000 nM | IC50 (NRAS G12C): 10 to 100 nM | IC50 (KRAS G13C): 100 to 1000 nM | IC50 (KRAS WT): 100 to 1000 nM

SMILES: CCn1c(-c2cnccc2COC)c2c3cc(ccc31)-c1cc(O)cc(c1)C[C@H](NC(=O)[C@H](C(C)C)N(C)C(=O)[C@@H]1CCCO1)C(=O)N1CCC[C@H](N1)C(=O)OCC(C)(C)C2 [Example A91]
IC50 (Capan-1 (K-Ras G12V)): 100 to 1000 nM | IC50 (NCI-H358 (K-Ras G12C)): 100 to 1000 nM | IC50 (KRAS G13D): 1000 to 10000 nM | IC50 (KRAS G12C): 100 to 1000 nM | IC50 (KRAS G12S): 100 to 1000 nM | IC50 (KRAS G12D): 1000 to 10000 nM | IC50 (KRAS G12V): 100 to 1000 nM | IC50 (NRAS G12C): 100 to 1000 nM | IC50 (KRAS G13C): 100 to 1000 nM | IC50 (KRAS WT): 100 to 1000 nM

SMILES: CCn1c(-c2cnccc2COC)c2c3cc(ccc31)-c1cc(O)cc(c1)C[C@H](NC(=O)[C@H](C(C)C)N(C)C(=O)[C@@H]1CCCN(C)C1)C(=O)N1CCC[C@H](N1)C(=O)OCC(C)(C)C2 [Example A259]
IC50 (Capan-1 (K-Ras G12V)): 1000 to 10000 nM | IC50 (NCI-H358 (K-Ras G12C)): 1000 to 10000 nM | IC50 (KRAS G13D): 100 to 1000 nM | IC50 (KRAS G12C): 100 to 1000 nM | IC50 (KRAS G12S): 100 to 1000 nM | IC50 (KRAS G12D): 100 to 1000 nM | IC50 (KRAS G12V): 1000 to 10000 nM | IC50 (NRAS G12C): 100 to 1000 nM | IC50 (KRAS G13C): 100 to 1000 nM | IC50 (KRAS WT): 100 to 1000 nM

SMILES: CCn1c(-c2cccnc2[C@H](C)OC)c2c3cc(ccc31)-c1cc(O)cc(c1)C[C@H](NC(=O)[C@H](C(C)C)N(C)C(=O)C1CC13CCNC3)C(=O)N1CCC[C@H](N1)C(=O)OCC(C)(C)C2 (stereo partly drawn) [Example A148]
IC50 (Capan-1 (K-Ras G12V)): 1000 to 10000 nM | IC50 (NCI-H358 (K-Ras G12C)): 1000 to 10000 nM | IC50 (KRAS G13D): 10 to 100 nM | IC50 (KRAS G12C): 10 to 100 nM | IC50 (KRAS G12S): 10 to 100 nM | IC50 (KRAS G12D): 10 to 100 nM | IC50 (KRAS G12V): 100 to 1000 nM | IC50 (NRAS G12C): 10 to 100 nM | IC50 (KRAS G13C): 10 to 100 nM | IC50 (KRAS WT): 10 to 100 nM

Now from value to molecule, other results behind:

IC50 (NCI-H358 (K-Ras G12C)): 10 to 100 nM | IC50 (KRAS G13D): 100 to 1000 nM | IC50 (KRAS G12C): 10 to 100 nM | IC50 (KRAS G12S): 100 to 1000 nM | IC50 (KRAS G12D): 100 to 1000 nM | IC50 (KRAS G12V): 100 to 1000 nM | IC50 (NRAS G12C): 10 to 100 nM | IC50 (KRAS G13C): 100 to 1000 nM | IC50 (KRAS WT): 100 to 1000 nM
SMILES: CCn1c(-c2cccnc2[C@H](C)OC)c2c3cc(ccc31)-c1csc(n1)C[C@H](NC(=O)[C@H](C(C)C)N(C)C(=O)N1CC(N3CCN(C)CC3)C1)C(=O)N1CCC[C@H](N1)C(=O)OCC(C)(C)C2 [Example A288]
IC50 (Capan-1 (K-Ras G12V)): 10 to 100 nM

IC50 (NCI-H358 (K-Ras G12C)): 100 to 1000 nM | IC50 (KRAS G13D): 1000 to 10000 nM | IC50 (KRAS G12C): 100 to 1000 nM | IC50 (KRAS G12S): 1000 to 10000 nM | IC50 (KRAS G12D): 1000 to 10000 nM | IC50 (KRAS G12V): 100 to 1000 nM | IC50 (NRAS G12C): 100 to 1000 nM | IC50 (KRAS G13C): 1000 to 10000 nM | IC50 (KRAS WT): 100 to 1000 nM
SMILES: CCn1c(-c2cccnc2[C@H](C)OC)c2c3cc(ccc31)-c1csc(n1)C[C@H](NC(=O)[C@H](C(C)C)N(C)C(=O)NC)C(=O)N1CCC[C@H](N1)C(=O)OCC(C)(C)C2 [Example A137]
IC50 (Capan-1 (K-Ras G12V)): 100 to 1000 nM

IC50 (NCI-H358 (K-Ras G12C)): 10 to 100 nM | IC50 (KRAS G13D): 100 to 1000 nM | IC50 (KRAS G12C): 100 to 1000 nM | IC50 (KRAS G12S): 100 to 1000 nM | IC50 (KRAS G12D): 1000 to 10000 nM | IC50 (KRAS G12V): 100 to 1000 nM | IC50 (NRAS G12C): 100 to 1000 nM | IC50 (KRAS G13C): 100 to 1000 nM | IC50 (KRAS WT): 100 to 1000 nM
SMILES: CCn1c(-c2cccnc2[C@H](C)OC)c2c3cc(ccc31)-c1csc(n1)C[C@H](NC(=O)[C@H](C(C)C)N(C)C(=O)N1CC(N3CCCC3)C1)C(=O)N1CCC[C@H](N1)C(=O)OCC(C)(C)C2 [Example A329]
IC50 (Capan-1 (K-Ras G12V)): 10 to 100 nM

IC50 (NCI-H358 (K-Ras G12C)): 10 to 100 nM | IC50 (KRAS G13D): 100 to 1000 nM | IC50 (KRAS G12C): 10 to 100 nM | IC50 (KRAS G12S): 100 to 1000 nM | IC50 (KRAS G12D): 100 to 1000 nM | IC50 (KRAS G12V): 100 to 1000 nM | IC50 (NRAS G12C): 10 to 100 nM | IC50 (KRAS G13C): 100 to 1000 nM | IC50 (KRAS WT): 100 to 1000 nM
SMILES: CCn1c(-c2cccnc2[C@H](C)OC)c2c3cc(ccc31)-c1csc(n1)C[C@H](NC(=O)[C@H](C(C)C)N(C)C(=O)N(C)C1CC1)C(=O)N1CCC[C@H](N1)C(=O)OCC(C)(C)C2 [Example A353]
IC50 (Capan-1 (K-Ras G12V)): 10 to 100 nM

IC50 (NCI-H358 (K-Ras G12C)): 100 to 1000 nM | IC50 (KRAS G13D): 10 to 100 nM | IC50 (KRAS G12C): 10 to 100 nM | IC50 (KRAS G12S): 10 to 100 nM | IC50 (KRAS G12D): 10 to 100 nM | IC50 (KRAS G12V): 10 to 100 nM | IC50 (NRAS G12C): 10 to 100 nM | IC50 (KRAS G13C): 10 to 100 nM | IC50 (KRAS WT): 10 to 100 nM
SMILES: CCn1c(-c2cccnc2[C@H](C)OC)c2c3cc(ccc31)-c1cc(O)cc(c1)C[C@H](NC(=O)[C@H](C(C)C)N(C)C(=O)[C@H]1CCN(C(=O)[C@H]3CCCN3)C1)C(=O)N1CCC[C@H](N1)C(=O)OCC(C)(C)C2 [Example A378]
IC50 (Capan-1 (K-Ras G12V)): 1000 to 10000 nM

— patent US20230233569A1 (Revolution Medicines, Inc., priority 2020, published 2023)
